Laboratory results from the supplement of paper PMC11997997.

Experiments:
[1] = system: Mycobacterium tuberculosis CDC1551 (intracellular, in murine BMDM); experiment: area under intracellular growth-inhibition dose-response curve (AUC (% inhibition x dose, relative)); higher = more potent; settings: duration: 6 days; dose range: 0.13-80 uM, 8 points
In short: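 Macrophages derived from primary murine bone marrow were infected for 1 h at multiplicity of infection 1 with luciferase-expressing M. tuberculosis CDC1551, then treated for 6 days at final concentrations of 80–0.13 μM. Bright-Glo luciferin signal, normalised to a reference drug control and the lowest-concentration wells, gave the growth readout. Area under the growth-inhibition dose–response curve was then calculated in GraphPad Prism.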

[2] = system: murine bone marrow-derived macrophages; experiment: area under cytotoxicity dose-response curve (AUC (% cytotoxicity x dose, relative)); higher = more cytotoxic; settings: duration: 6 days; dose range: 0.13-80 uM, 8 points
In short: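 Primary murine bone marrow-derived macrophages in opaque 384-well plates were exposed to an 8-point, 2.5-fold dilution series (final 80–0.13 μM) for 6 days at 37 °C in 5% CO2. Viability was read with Promega's CellTiter-Glo luminescence assay, and percent cytotoxicity was normalised to vehicle and positive control wells. Cytotoxicity is reported as the area under the dose–response curve, calculated in GraphPad Prism version 10.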

Compound: FC(F)Oc1ccc(NC(=S)Nc2ccc3c[nH]nc3c2)cc1
- area under intracellular growth-inhibition dose-response curve [1]: 219
- area under cytotoxicity dose-response curve [2]: < 0

Compound: Cc1ccc(-c2cc(-c3ccc(C)cc3)[n+](-c3ccccc3)c(-c3ccc(C)cc3)c2)cc1.[O-][Cl+3]([O-])([O-])[O-]
- area under intracellular growth-inhibition dose-response curve [1]: 268
- area under cytotoxicity dose-response curve [2]: 85.5

Compound: O=C(NCCC1=CCCCC1)NC12CC3CC(CC(C3)C1)C2
- area under intracellular growth-inhibition dose-response curve [1]: 196
- area under cytotoxicity dose-response curve [2]: 60.3

Compound: Cc1cc(OCCCCn2ccnc2)cc(C)c1Cl.Cl
- area under intracellular growth-inhibition dose-response curve [1]: 174
- area under cytotoxicity dose-response curve [2]: 24

Compound: O=C(NCCc1ccc(F)cc1)NC12CC3CC(CC(C3)C1)C2
- area under intracellular growth-inhibition dose-response curve [1]: 190
- area under cytotoxicity dose-response curve [2]: 60.1

Compound: Clc1ccc(-c2nnc(C3CCCCC3)o2)cc1
- area under intracellular growth-inhibition dose-response curve [1]: 212
- area under cytotoxicity dose-response curve [2]: < 0

Compound: COc1ccc(/C=N/NC(=O)c2ccncc2)c(OC)c1
- area under intracellular growth-inhibition dose-response curve [1]: 227
- area under cytotoxicity dose-response curve [2]: 28

Compound: CCN(CC)CCOC(=O)c1ccc(N/C=C(/C#N)c2nc(-c3ccc(OC)c(OC)c3)cs2)cc1
- area under intracellular growth-inhibition dose-response curve [1]: 90.7
- area under cytotoxicity dose-response curve [2]: 36.6

Compound: O=C(Nc1cccc([N+](=O)[O-])c1)NC1CCCCCCC1
- area under intracellular growth-inhibition dose-response curve [1]: 228
- area under cytotoxicity dose-response curve [2]: 14

Compound: O=C(NC1CCCCC1)c1ccc2c(c1)OCO2
- area under intracellular growth-inhibition dose-response curve [1]: 125
- area under cytotoxicity dose-response curve [2]: 88.5

Compound: CCOc1ccc(C(=O)Nc2ccc(NC(=S)NC(=O)CC)cc2)cc1Cl
- area under intracellular growth-inhibition dose-response curve [1]: 179
- area under cytotoxicity dose-response curve [2]: < 0

Compound: CCC(=O)N1CCN(c2ccc(NC(=O)c3ccc([N+](=O)[O-])o3)cc2)CC1
- area under intracellular growth-inhibition dose-response curve [1]: 47.9
- area under cytotoxicity dose-response curve [2]: 3.32

Compound: O=C(NCCc1ccccc1)c1ccc(Br)o1
- area under intracellular growth-inhibition dose-response curve [1]: 193
- area under cytotoxicity dose-response curve [2]: 46.2

Compound: CCN(CC)C(=O)CSc1nnc2nnc3cc(Cl)ccc3n12
- area under intracellular growth-inhibition dose-response curve [1]: 219
- area under cytotoxicity dose-response curve [2]: 55.1

Compound: O=C(CSc1nc(-c2ccccc2)ns1)N1CCOCC1
- area under intracellular growth-inhibition dose-response curve [1]: 163
- area under cytotoxicity dose-response curve [2]: 56.3

Compound: N#Cc1ccc(C(=O)NCC2CCCCC2)cc1
- area under intracellular growth-inhibition dose-response curve [1]: 107
- area under cytotoxicity dose-response curve [2]: 44.2

Compound: COc1ccc(NC(=O)C/C(C)=N/NC(=O)c2ccncc2)c([N+](=O)[O-])c1
- area under intracellular growth-inhibition dose-response curve [1]: 169
- area under cytotoxicity dose-response curve [2]: 129

Compound: O=C(NCCc1c[nH]c2ccccc12)c1cc([N+](=O)[O-])cc([N+](=O)[O-])c1
- area under intracellular growth-inhibition dose-response curve [1]: 257
- area under cytotoxicity dose-response curve [2]: < 0

Compound: O=C(c1ccc(Cl)c(Cl)c1)N1CCCC1
- area under intracellular growth-inhibition dose-response curve [1]: 86.7
- area under cytotoxicity dose-response curve [2]: 52.5

Compound: CCN(CC)CCN(C(=O)c1ccc2c(c1)OCCO2)c1nc2cc(C)cc(C)c2s1.Cl
- area under intracellular growth-inhibition dose-response curve [1]: 246
- area under cytotoxicity dose-response curve [2]: 8.98

Compound: O=C(NNC(=O)c1ccc(-c2ccc([N+](=O)[O-])cc2)o1)c1ccncc1
- area under intracellular growth-inhibition dose-response curve [1]: 264
- area under cytotoxicity dose-response curve [2]: 40.4

Compound: CC1(C)CC(=O)C=C(Nc2ccc(C(=O)O)c(O)c2)C1
- area under intracellular growth-inhibition dose-response curve [1]: 195
- area under cytotoxicity dose-response curve [2]: < 0

Compound: COc1ccc(C2=NOC(CNC(N)=S)C2)cc1 (stereo unspecified)
- area under intracellular growth-inhibition dose-response curve [1]: 92.8
- area under cytotoxicity dose-response curve [2]: 7.88

Compound: Cc1ccc(C(=O)N2CCCC2)cc1Br
- area under intracellular growth-inhibition dose-response curve [1]: 166
- area under cytotoxicity dose-response curve [2]: 8.65

Compound: Cc1cc(C)n2nc3nc4c(cc3c2n1)CCCC4
- area under intracellular growth-inhibition dose-response curve [1]: 152
- area under cytotoxicity dose-response curve [2]: < 0

Compound: CNc1nc(SCc2ccc(C)cc2)nc2c1CCCC2
- area under intracellular growth-inhibition dose-response curve [1]: 274
- area under cytotoxicity dose-response curve [2]: 19.6

Compound: COc1ccc(C(C)NC(=O)c2ccccc2)cc1 (stereo unspecified)
- area under intracellular growth-inhibition dose-response curve [1]: 222
- area under cytotoxicity dose-response curve [2]: 237

Compound: CC1CC(C)CN(C(=O)C2CCC(CNc3c(N4CCCCC4)c(=O)c3=O)CC2)C1 (stereo unspecified)
- area under intracellular growth-inhibition dose-response curve [1]: 125
- area under cytotoxicity dose-response curve [2]: 0.615

Compound: CCCCC(=O)NCc1ccc(Cl)cc1
- area under intracellular growth-inhibition dose-response curve [1]: 197
- area under cytotoxicity dose-response curve [2]: 27.4

Compound: COc1ccc(C(=O)COC(=O)CNC(=O)c2ccc(C)s2)c(OC)c1
- area under intracellular growth-inhibition dose-response curve [1]: 29.9
- area under cytotoxicity dose-response curve [2]: < 0

Compound: CC(C)(O)C(=O)Nc1ccc([N+](=O)[O-])c(C(F)(F)F)c1
- area under intracellular growth-inhibition dose-response curve [1]: 35.7
- area under cytotoxicity dose-response curve [2]: 82.8

Compound: CNc1nc(SC)nc2ccccc12
- area under intracellular growth-inhibition dose-response curve [1]: 242
- area under cytotoxicity dose-response curve [2]: 77.9

Compound: C/C(=N\NC(=O)c1ccncc1)c1cccnc1
- area under intracellular growth-inhibition dose-response curve [1]: 129
- area under cytotoxicity dose-response curve [2]: 90.7

Compound: Cc1ccc(C)c(NC(=O)CN2C(=O)NC(C)(c3ccc4c(c3)OCCO4)C2=O)c1 (stereo unspecified)
- area under intracellular growth-inhibition dose-response curve [1]: 44.8
- area under cytotoxicity dose-response curve [2]: 4.48

Compound: Cc1cc(C(F)F)nn1CC(=O)NC1C(=O)N2C(C(=O)O)=C(CSc3nnnn3C)CSC12 (stereo unspecified)
- area under intracellular growth-inhibition dose-response curve [1]: 86.3
- area under cytotoxicity dose-response curve [2]: 110

Compound: O=[N+]([O-])c1ccc(CN2CCN(c3ccccc3Cl)CC2)o1
- area under intracellular growth-inhibition dose-response curve [1]: 123
- area under cytotoxicity dose-response curve [2]: 63.5

Compound: O=C(O)C(=O)O.O=[N+]([O-])c1ccc(N2CCN(Cc3ccc([N+](=O)[O-])o3)CC2)cc1
- area under intracellular growth-inhibition dose-response curve [1]: 245
- area under cytotoxicity dose-response curve [2]: 45.2

Compound: CCOC(=O)c1c(C)nc2ccc(C)cn12
- area under intracellular growth-inhibition dose-response curve [1]: 155
- area under cytotoxicity dose-response curve [2]: 24.3

Compound: CC1CCN(C(=O)C2CCC(CNc3c(N4CCCCC4)c(=O)c3=O)CC2)CC1 (stereo unspecified)
- area under intracellular growth-inhibition dose-response curve [1]: 87.1
- area under cytotoxicity dose-response curve [2]: 8.86

Compound: O=C1N(c2nncs2)CCN1[N+](=O)[O-]
- area under intracellular growth-inhibition dose-response curve [1]: 97.8
- area under cytotoxicity dose-response curve [2]: < 0

Compound: COc1ccc(-c2ncn(CCC#N)c2[N+](=O)[O-])cc1
- area under intracellular growth-inhibition dose-response curve [1]: 119
- area under cytotoxicity dose-response curve [2]: 8.24

Compound: O=C1NC(=S)S/C1=C\C=C\c1ccc([N+](=O)[O-])o1
- area under intracellular growth-inhibition dose-response curve [1]: 2.55
- area under cytotoxicity dose-response curve [2]: 71.5

Compound: COc1cc(/C=N/NC(=O)c2ccncc2)ccc1OC(=O)c1cccc(F)c1
- area under intracellular growth-inhibition dose-response curve [1]: 111
- area under cytotoxicity dose-response curve [2]: 88.7

Compound: O=C(CCC1CCCC1)NCc1ccccn1
- area under intracellular growth-inhibition dose-response curve [1]: 240
- area under cytotoxicity dose-response curve [2]: < 0

Compound: O=C(COc1ccccc1)NC(=S)Nc1ccc2c(c1)Cc1ccccc1-2
- area under intracellular growth-inhibition dose-response curve [1]: 190
- area under cytotoxicity dose-response curve [2]: 74

Compound: O=C(COC(=O)c1cc(Cl)nc(Cl)c1)NCCc1ccc(F)cc1
- area under intracellular growth-inhibition dose-response curve [1]: 108
- area under cytotoxicity dose-response curve [2]: 4.71

Compound: CCN(CC)c1ccc(NC(=S)Nc2ccc(F)cc2)cc1
- area under intracellular growth-inhibition dose-response curve [1]: 106
- area under cytotoxicity dose-response curve [2]: 90.6

Compound: CC(C)OC(=O)c1c2c(n3ccccc13)C(=O)c1ccccc1C2=O
- area under intracellular growth-inhibition dose-response curve [1]: 209
- area under cytotoxicity dose-response curve [2]: 36.2

Compound: CS(=O)(=O)Nc1ccccc1C(=O)OCC(=O)N1CCC(c2ccccc2)=N1
- area under intracellular growth-inhibition dose-response curve [1]: 115
- area under cytotoxicity dose-response curve [2]: < 0

Compound: COc1c(/C=N/NC(=O)c2ccncc2)c(CCN(C)C(C)=O)cc2c1OCO2
- area under intracellular growth-inhibition dose-response curve [1]: 252
- area under cytotoxicity dose-response curve [2]: 96.3

Compound: CN(C)CCSc1nc2cc(S(=O)(=O)N3CCCCC3)ccc2o1
- area under intracellular growth-inhibition dose-response curve [1]: 1.9
- area under cytotoxicity dose-response curve [2]: 11.5

Compound: O=S(=O)(Nc1ccc(S(=O)(=O)Nc2nccs2)cc1)c1ccc2c(c1)OCCO2
- area under intracellular growth-inhibition dose-response curve [1]: 77.8
- area under cytotoxicity dose-response curve [2]: < 0

Compound: CCC(=O)N1NC(=C2C(=O)N(C)C(=O)N(C)C2=O)CC1c1ccccc1 (stereo unspecified)
- area under intracellular growth-inhibition dose-response curve [1]: 122
- area under cytotoxicity dose-response curve [2]: 23.3

Compound: NS(=O)(=O)c1ccc(NC(=O)c2ccc(Cl)c(S(=O)(=O)NCc3ccco3)c2)cc1
- area under intracellular growth-inhibition dose-response curve [1]: 25.5
- area under cytotoxicity dose-response curve [2]: < 0

Compound: CC(C)Cn1c([N+](=O)[O-])nc2c1c(=O)[nH]c(=O)n2C
- area under intracellular growth-inhibition dose-response curve [1]: 5.16
- area under cytotoxicity dose-response curve [2]: 40.1

Compound: Cc1ccc2sc(N3CCN(C(=O)c4ccc([N+](=O)[O-])o4)CC3)nc2c1C
- area under intracellular growth-inhibition dose-response curve [1]: 12.2
- area under cytotoxicity dose-response curve [2]: 11.3

Compound: CC(C)c1ccc(NC(=S)Nc2ccc3c[nH]nc3c2)cc1
- area under intracellular growth-inhibition dose-response curve [1]: 271
- area under cytotoxicity dose-response curve [2]: < 0

Compound: O=C(Nc1ccc(S(=O)(=O)NC2=NCCCCC2)cc1)c1cccs1
- area under intracellular growth-inhibition dose-response curve [1]: 43.4
- area under cytotoxicity dose-response curve [2]: 3.27

Compound: Cc1nc(SCC(=O)NC2CCCCC2)nc(O)c1C
- area under intracellular growth-inhibition dose-response curve [1]: 30.2
- area under cytotoxicity dose-response curve [2]: 17.5

Compound: O=C(Nc1ccc(N2CCN(Cc3ccccc3F)CC2)cc1)c1ccc([N+](=O)[O-])o1
- area under intracellular growth-inhibition dose-response curve [1]: 186
- area under cytotoxicity dose-response curve [2]: 5.12

Compound: Cc1ccc(C(=O)N2CCN(c3ccc(NC(=S)NC(=O)Cc4ccccc4)cc3)CC2)cc1
- area under intracellular growth-inhibition dose-response curve [1]: 212
- area under cytotoxicity dose-response curve [2]: 53.7

Compound: c1ccc(Cc2nnc(-c3ccccc3)o2)cc1
- area under intracellular growth-inhibition dose-response curve [1]: 264
- area under cytotoxicity dose-response curve [2]: 39.3

Compound: C/C(=N\NC(N)=S)c1ccccc1
- area under intracellular growth-inhibition dose-response curve [1]: 219
- area under cytotoxicity dose-response curve [2]: 45.3
